The test system of experiment [1] is MDA-MB-231 (breast cancer) cell line. Nature of the experiment: Cell growth inhibition experiment (SRB), MDA-MB-231. Format: cell-based, human. As to conditions: Homo sapiens, MDA-MB-231, 96 h, 96 hours incubation. As for the experimental part:
(§1) The cell lines below were used in order to confirm the efficacy of the compounds synthesized in Examples 1 to 60. Human PANC-1 (pancreatic cancer) and MDA-MB-231 (breast cancer) cell lines were obtained from the American Type Culture Collection (ATCC; Manassas, Va.); and HN31 (head and neck cancer) and UMRC2 (kidney cancer) cell lines were secured from the United States National Institutes of Health (Bethesda, Md.). The MDA-MB-231, UMRC2, HN31, and PANC-1 cell lines were cultured in Dulbecco modified Eagle medium (DMEM; Invitrogen, Carlsbad, Calif.) containing FBS (10%), HEPES (10 mM), penicillin (100 U/mL), and streptomycin (100 μg/mL). All cell lines were cultured in an incubator (37° C., 5% CO2).
(§2) The 4-(aryl)-N-(3-alkoxyfuro[2,3-b]pyrazin-2-yl)-piperazine-1-carboxamide derivative compounds synthesized according to Examples 1 to 60 of the present invention were treated with various human tissue-derived cancer cell lines cultured according to Experimental Example 1, and thus the inhibitory effect of the growth of human cancer cells was confirmed. The cell growth inhibition experiment was conducted using the sulforhodamine B (SRB) technique (Skehan et al., J. National Cancer Institute, 1990, 82: 1107-1112). Specifically, each cell line was seeded in a 96-well plate at a density of 2 to 3×10^3 cells/well, cultured overnight, and then treated with the 4-(aryl)-N-(3-alkoxyfuro[2,3-b]pyrazin-2-yl)-piperazine-1-carboxamide derivative compounds of the present invention. The experiment was repeated 3 times for each compound. Cells treated with each compound were additionally incubated for 96 hours, fixed with 10% trichloroacetic acid (TCA), and then left at 4° C. for 1 hour. The resultant was washed 3 times with distilled water. Thereafter, each cell was treated with 0.4% sulforhodamine B dissolved in 1% acetic acid, stained for 30 minutes, and then washed 4 times with 1% acetic acid. The resultant was dried in the air. After shaking the resultant in Tris solution (10 mM) for 5 minutes, the absorbance was measured at 530 nm using a Benchmark Plus Microplate reader (Bio-Rad Laboratories, Hercules, Calif.).
(§3) In order to convert the OD530 value to the number of viable cells per each well, the measured OD530 value was compared to the standard OD530-vs.-cell number curve of each cell line. The percent survival was calculated using the following formula: % survival=Nlive cells(test)/Nlive cells(control)×100

Experiment [2] relates to UMRC2 (kidney cancer) cell line. The experiment in a line: Cell growth inhibition experiment (SRB), UMRC2. The class given is cell-based, human. As to conditions: Homo sapiens, UMRC2, 96 h, 96 hours incubation. How it is done: as §1, §2, §3
The test system of experiment [3] is PANC-1 (pancreatic cancer) cell line. The experiment in a line: Cell growth inhibition experiment (SRB), PANC-1. The class given is cell-based. As to conditions: Homo sapiens, PANC-1, 96 h, 96 hours incubation. As for the experimental part:
as §1, §2, §3

For experiment [4], the system named is HN31 (head and neck cancer) cell line. Nature of the experiment: Cell growth inhibition experiment (SRB), HN31. Format: cell-based, human. As to conditions: Homo sapiens, 96 h, 96 hours incubation. As for the experimental part:
as §1, §2, §3

The test system of the next experiment is A549. Nature of the experiment: Cell growth inhibition experiment (SRB), A549. As to conditions: Homo sapiens, A549, 96 h, 96 hours incubation, read-out: IC50 (μM) for cancer cell line A549. Format: cell-based. How it is done:
as §2, §3

The next experiment has as its system HEK293. Nature of the experiment: Cell growth inhibition experiment (SRB), HEK293. The class given is cell-based, human. As to conditions: Homo sapiens, HEK293, 96 h, 96 hours incubation, read-out: IC50 (μM) for cancer cell line HEK293. How it is done: as §2, §3
For the next experiment, the system named is HUVEC. The experiment in a line: Cell growth inhibition experiment (SRB), HUVEC. The class given is cell-based, human. As to conditions: Homo sapiens, HUVEC, 96 h, 96 hours incubation, read-out: IC50 (μM) […]. As for the experimental part: as §2, §3
The subject of another experiment is HT29. Nature of the experiment: Cell growth inhibition experiment (SRB), HT29. The class given is cell-based, human. As to conditions: Homo sapiens, HT-29, 96 h, 96 hours incubation, read-out: IC50 (μM) for cancer cell line HT29. As for the experimental part: as §2, §3
The test system of a further experiment is SK-OV-3. The experiment in a line: Cell growth inhibition experiment (SRB), SK-OV-3. The class given is cell-based, human. As to conditions: Homo sapiens, SK-OV-3, 96 h, 96 hours incubation, read-out: IC50 (μM) for cancer cell line SK-OV-3. How it is done: as §2, §3

SMILES strings stand for the structures.

The term IC50 denotes the concentration that inhibits the measured activity by half. For `CCOc1nc2occc2nc1NC(=O)N1CCN(c2cc(C)cc(C)c2)CC1` [Example 15, 4-(3,5-Dimethylphenyl)-N-(3-ethoxyfuro[2,3-b]pyrazin-2-yl)piperazine-1-carboxamide], the IC50 in experiment [1] was 0.24 µM; in [2], 0.25 µM; in experiment [3], 1.12 µM; in [4], 0.78 µM; in the experiment on A549 it was under 2.5 µM; in the experiment with HEK293 it was under 2.5 µM. Besides, the concentration for half-maximal inhibition (IC50) in the experiment with HUVEC, in the experiment with HT29 and in the experiment on SK-OV-3 was under 2.5 µM in each case.

Take `COc1nc2occc2nc1NC(=O)N1CCN(c2cccc(OC(F)(F)F)c2)CC1` [Example 10, N-(3-Methoxyfuro[2,3-b]pyrazin-2-yl)-4-(3-(trifluoromethoxy)phenyl)piperazine-1-carboxamide]: the IC50 turned out to be 1.02 µM in experiment [1]; 1.13 µM in experiment [2]; 0.68 µM in [3]; 0.28 µM in [4]; 1.14 µM with A549; 0.56 µM with HEK293. The half-maximal inhibitory concentration (IC50) stood at 1.36 µM with HUVEC, 1.27 µM in the experiment with HT29 and 1.23 µM in the experiment with SK-OV-3.

For the molecule `CCOc1nc2oc(C)cc2nc1NC(=O)N1CCN(c2cc(OC)cc(OCCN(C)C)c2)CC1` [Example 34, 4-(3-(2-(Dimethylamino)ethoxy)-5-methoxyphenyl)-N-(3-ethoxy-6-methylfuro[2,3-b]pyrazin-2-yl)piperazine-1-carboxamide], the IC50 amounted to 0.36 µM in [1]; 1.21 µM in [2]; 0.44 µM in experiment [3]; 1.02 µM in experiment [4]; 0.68 µM in the experiment on A549; 0.44 µM in the experiment on HEK293. Further, the IC50 in the experiment on HUVEC, in the experiment on HT29 and with SK-OV-3 was under 2.5 µM in each case.

Turning to `CCOc1nc2oc(C)cc2nc1NC(=O)N1CCN(c2cc(OC)cc(OC)c2)CC1` [Example 31, 4-(3,5-Dimethoxyphenyl)-N-(3-ethoxy-6-methylfuro[2,3-b]pyrazin-2-yl)piperazine-1-carboxamide], the IC50 is 0.12 µM in experiment [1]; 0.36 µM in [2]; 0.44 µM in experiment [3]; 1.63 µM in experiment [4]; 1.25 µM with A549; under 2.5 µM with HEK293. Also, the half-inhibitory concentration (IC50) in the experiment with HUVEC, in the experiment with HT29 and in the experiment with SK-OV-3 was under 2.5 µM throughout.

In the case of `COc1nc2oc(C)cc2nc1NC(=O)N1CCN(c2cc(C)cc(F)c2)CC1` [Example 26, 4-(3-Fluoro-5-methylphenyl)-N-(3-methoxy-6-methylfuro[2,3-b]pyrazin-2-yl)piperazine-1-carboxamide], the IC50 in [1] was 1.32 µM; in experiment [2] it was 1.56 µM; in experiment [3] it was under 2.5 µM; in experiment [4], under 2.5 µM; in the experiment with A549 it was under 2.5 µM; with HEK293 it was under 2.5 µM. Besides, the 50% inhibitory concentration (IC50) in the experiment on HUVEC, in the experiment with HT29 and in the experiment on SK-OV-3 was under 2.5 µM each time.

For `COc1cc(F)cc(N2CCN(C(=O)Nc3nc4cc(C)oc4nc3OC)CC2)c1` [Example 23, 4-(3-Fluoro-5-methoxyphenyl)-N-(3-methoxy-6-methylfuro[2,3-b]pyrazin-2-yl)piperazine-1-carboxamide], the IC50 came to 0.36 µM in experiment [1]; 0.44 µM in experiment [2]; 0.44 µM in experiment [3]; 0.28 µM in experiment [4]; 0.63 µM with A549; 0.35 µM with HEK293. In addition, the IC50 in the experiment with HUVEC came out at 0.45 µM; in the experiment with HT29 it was 0.28 µM; in the experiment on SK-OV-3, 0.36 µM.

Consider `COc1cc(OC)cc(N2CCN(C(=O)Nc3nc4cc(C)oc4nc3OC)CC2)c1` [Example 21, 4-(3,5-Dimethoxyphenyl)-N-(3-methoxy-6-methylfuro[2,3-b]pyrazin-2-yl)piperazine-1-carboxamide], for which the 50% inhibitory concentration (IC50) was 0.44 µM in [1]; 1.74 µM in [2]; 2.12 µM in [3]; under 2.5 µM in [4]; 1.63 µM in the experiment on A549; 1.25 µM with HEK293. For the same molecule, the IC50 in the experiment on HUVEC was under 2.5 µM; in the experiment with HT29 it was 1.85 µM; with SK-OV-3, 1.85 µM.

For the origin of these results see patent US10800788B2, “4-(aryl)-N-(3-alkoxyfuro[2,3-b]pyrazin-2-yl)-piperazine-1-carboxamide derivative and antiproliferative effect thereof” (Dongguk University Industry-Academic Cooperation Foundation, priority 2016, dated 2020).
